The results in this text go back to patent publication US20260144798A1, “Disruption of Vascular Smooth Muscle Relaxation by Carfilzomib May be the Primary Reason for CFZ-Induced Vascular Dysfunction” (AMGEN INC., priority 2019, published 2026).

This experiment has as its system rat aortic rings. Briefly: Vasopressor-induced contraction of rat aortic rings, myograph. The protocol: An isometric myograph (DMT 620M) was used for ex vivo measurement of vascular function. Eight-to 10-week old Sprague Dawley rats (purchased from Charles River Laboratories, Wilmington, MA) were first anesthetized with 3% isoflurane and then euthanized using inhaled desflurane. The aortas were isolated in an ice-cold, oxygenated (95% O2, 5% CO2) Krebs-Henseleit buffer (118.3 mM NaCl, 4.7 mM KCl, 1.2 mM MgSO4, 1.2 mM KH2PO4, 2.5 mM CaCl2, 25 mM NaHCO3, and 11.0 mM glucose; purchased from Sigma-Aldrich, St. Louis, MO). […] The tension of the aortic rings was continuously measured with the Lab Chart 7 data acquisition system (ADInstruments, Colorado Springs, CO). […]
To assess the effect of CFZ on vascular contraction, the aortic rings were pre-treated with or without CFZ for 2 hours, followed by treatment with an increasing concentration of phenylephrine (PE) from 10 nM to 1 μM. […] The contraction was continuously measured and plotted as percent contraction normalized to the response of KPSS. […] The relaxation was continuously measured and plotted as percent relaxation normalized to the response with 1 μM PE.

On to `CC(C)C[C@H](NC(=O)[C@H](CCc1ccccc1)NC(=O)CN1CCOCC1)C(=O)N[C@@H](Cc1ccccc1)C(=O)N[C@@H](CC(C)C)C(=O)[C@@]1(C)CO1` [CFZ, carfilzomib], for which, under “CFZ 0.3, 0.9 or 2.7 μM, increasing phenylephrine (FIG. 1C)”, the “effect on phenylephrine-induced vascular contraction” value was “No significant CFZ effect on vascular contraction”. Further, under “CFZ vs vehicle, increasing potassium chloride (FIG. 1D)”, the “effect on potassium chloride-induced vascular contraction” value is recorded as “No significant CFZ effect on vascular contraction”.
